Values quoted from earlier work in patent US8633167B2, “Method for the protection of trees” (Syngenta Crop Protection LLC, priority 2006, dated 2014).

Tests used:
[1] = system: SPB; settings: applied to foliage at two different rates; cited from earlier work
[2] = system: SPB; settings: applied by Mauget Injectors; cited from earlier work

For `COP(=O)(NC(C)=O)SC` (stereo not shown) [acephate], the SPB larval survival [1] is listed as “reduce” and the “effect on eggs, pupae, callow or parent adults” value [1] is listed as “no effect”.

For `COP(=O)(OC)O/C(C)=C/C(=O)N(C)C` [dicrotophos], the egg gallery length [2] is listed as “significantly reduce” and the subsequent brood production [2] is listed as “significantly reduce”.
